Measured values as given in patent publication US20110178110A1, “Genotype and Expression Analysis for Use in Predicting Outcome and Therapy Selection” (University of Southern California, priority 2008, published 2011).

Assays:
[1] = tested on: metastatic adenocarcinoma of the colon or rectum; conditions: individuals with serum LDH more than 1.5 times the upper limit of normal; interim data; cited from earlier work
[2] = tested on: stage II colon cancer; assay: Tumor recurrence in stage II colon cancer patients treated with 5-FU based adjuvant chemotherapy; format: in vivo, human
Method: Methods: Blood specimens from 107 patients (median age of 60 years; range: 22-86) were obtained at the University of Southern California medical facilities. All patients were diagnosed with high-risk, lymph node negative, stage II colon cancer and were uniformly treated with 5-FU based adjuvant chemotherapy. The median follow-up was 4.8 years (range: 0.3-16.8). […] Genomic DNA was extracted from peripheral blood and genotypes were determined using PCR-RFLP.

| SMILES | clinical benefit when PTK/ZK was added to FOLFOX4, compared to FOLFOX4 plus placebo [1] | Probability ± SE of 3-year recurrence [2] | Median time to recurrence (TTR) (95% CI) ([2]; by adjuvant therapy) |
| --- | --- | --- | --- |
| Clc1ccc(Nc2nnc(Cc3ccncc3)c3ccccc23)cc1.O=C(O)CCC(=O)O [PTK/ZK, 1-[4-Chloroanilino]-4-[4-pyridylmethyl]phthalazine Succinate] | greater clinical benefit |  |  |
| O=c1[nH]cc(F)c(=O)[nH]1 [5-FU, Fluorouracil] |  | 0.29 ± 0.06 | 9.4 (4.8, 16.8+) yrs |
